{
  "source": "paper PMC5581131",
  "about": "“The novel sphingosine-1-phosphate receptors antagonist AD2900 affects lymphocyte activation and inhibits T-cell entry into the lymph nodes” (Oncotarget, 2017)",
  "key": {"[1]": {"system": "activated PBMCs", "experiment": "Apoptosis of activated PBMCs, AnnexinV-PI FACS after MLR", "format": "cell-based, human", "settings": "1-day pretreatment, 5 days of MLR", "procedure": "(§1) Figure 1 AD2900 inhibits human lymphocyte proliferation in allogeneic activation (A, B) The levels of proliferative response of human peripheral blood lymphocytes (PBMCs) after 1-day pretreatment with different concentrations of AD2900, AD2750, YZ138, YZ158, and YZ297 (A) or AD2900, FTY720, and SEW2871 (B) were tested by human allogeneic mixed lymphocyte reaction (MLR) assay, followed by a [3H] thymidine incorporation analysis. (C) Apoptosis of AD2900-treated activated PBMCs was tested by AnnexinV-propidium iodide (PI) FACS analysis following 1-day AD2900 pretreatment and MLR. All the samples were compared to the untreated PBMC control. (D) IFN-γ secretion from activated PBMCs was tested by ELISA following a 1-day AD2900 pretreatment in MLR. On the 5th day of hMLR, supernatants were collected and assayed for the level of IFN-γ. (E) Jurkat cell viability after a 1-day treatment with different concentrations of AD2900, FTY720, and SEW2871 was tested by XTT viability assay. […]\n(§2) Human PBLs were collected from human whole blood collected from healthy donors. […] For the thymidine incorporation assay, after 4 days of co-culture, cells were pulsed with ^3H-thymidine at 1 μCi (0.037MBq) per well (PerkinElmer, MA, USA) for 16 additional hours and then harvested onto glass-fiber filters. ^3H-thymidine incorporation was measured using Top Count. […]"}, "[2]": {"system": "IFN-γ", "experiment": "IFN-γ secretion from activated PBMCs, ELISA", "format": "cell-based, human", "settings": "1-day pretreatment, 5th day of MLR", "procedure": "as §1, §2"}, "[3]": {"system": "TNF-α", "experiment": "TNF-α secretion from activated PBMCs, ELISA", "format": "cell-based, human", "settings": "1-day pretreatment, 5th day of MLR", "procedure": "To better characterize the effect of AD2900 on activated PBMCs, the influence of AD2900 on apoptosis and cytokine secretion was tested. After 5 days of MLR, the cells were collected for apoptosis evaluation, while the supernatant was collected for ELISA test. Apoptosis was induced on the activated PBMCs only at higher concentrations of AD2900, above 10 μM (Figure 1C). Therefore, only a small part of the effect of AD2900 on the suppression of lymphocytic proliferation might be attributed to apoptosis. AD2900-induced inhibition of proliferation was accompanied by a reduced level of IFN-γ concentrations in the supernatant (Figure 1D).\nas §2, with “donors. Subsequently, the cells were centrifuged on a Ficoll-Paque gradient (Fresenius Kabi Norge AS, Oslo, Norway) and were isolated from the interphase layer. For the human MLR experiment, PBMCs from one healthy donor were pretreated for 1 day with AD2900, AD2730, AD2750, YZ297, YZ158, FTY720, or SEW2871.” for “donors.”"}, "[4]": {"target": "S1P1 (Homo sapiens, UniProt P21453)", "sequence (P21453 whole entry, the tested form may be a part)": "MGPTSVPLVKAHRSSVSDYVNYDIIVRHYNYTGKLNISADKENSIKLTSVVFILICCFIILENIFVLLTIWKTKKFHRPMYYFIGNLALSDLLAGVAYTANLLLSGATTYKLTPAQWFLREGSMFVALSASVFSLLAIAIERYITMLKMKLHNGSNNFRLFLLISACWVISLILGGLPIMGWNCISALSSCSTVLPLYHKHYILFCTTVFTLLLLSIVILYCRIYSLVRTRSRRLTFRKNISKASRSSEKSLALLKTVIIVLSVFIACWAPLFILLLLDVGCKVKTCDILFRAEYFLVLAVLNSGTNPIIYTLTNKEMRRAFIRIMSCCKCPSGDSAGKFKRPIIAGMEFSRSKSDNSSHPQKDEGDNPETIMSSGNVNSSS", "experiment": "S1P1 antagonist assay, Tango S1P1 (EDG1)-bla U-2 OS cells", "format": "cell-based", "design": "Tango fusion partner (protease site + GAL4-VP16 transcription factor); host or cells: Tango S1P1 (EDG1)-bla U-2 OS cells", "settings": "S1P1 TANGO U-2 OS cell line", "procedure": "Since AD2900 is a sphingolipid analogue with properties that resemble those of S1P, we intended to examine its ability to interact with the S1P receptors. To delineate whether AD2900 can function as an agonistic or antagonistic compound to any of the S1P receptors, we used a high-throughput screening cell-based assay, employing cell lines stably transfected with human S1P receptors 1, 2, 3, 4, or 5 [37]. In this experiment, a compound with an IC50 or EC50 value ≤10 μM for a certain S1P receptor is considered active as an antagonist or an agonist, respectively. The results illustrate that AD2900 acts as an antagonist to all S1P receptors (Table 1, Supplementary Figure 3). […] No agonist activation was evident.\nThe S1P1 agonist test and S1P2, S1P3, S1P4, and S1P5 agonist and antagonist tests were conducted as previously described using S1P1 CRE-bla CHO cells, S1P2 CRE-bla CHO cells, S1P3 NFAT-bla CHO cells, Tango™ S1P4 (EDG6)-bla U-2 OS cells, and Tango™ S1P5 ([…])-bla U-2 OS cells. The S1P1 antagonist assay was carried out according to the manufacturer’s instructions using a Tango™ S1P1 (EDG1)-bla U-2 OS Cell-Based Assay (Invitrogen, NY, USA)."}},
  "data": [
    {"smiles": "CCCCCCCCCCCCCCCCNC(CO)(CO)CO", "note": "[AD2900]", "values": [
      {"measurement": "concentrations at which apoptosis was induced on activated PBMCs", "setting": "[1]", "value": "above 10 μM"},
      {"measurement": "IFN-γ concentrations in the supernatant", "setting": "[2]", "value": "reduced level"},
      {"measurement": "TNF-α concentration in the culture media", "setting": "[3]", "value": "not influenced"},
      {"measurement": "IC50", "setting": "[4]", "value": 3.8, "unit": "µM"}
    ]}
  ]
}
